Paper PMC7561186, “Rational design of balanced dual-targeting antibiotics with limited resistance” (PLoS Biology, 2020)
In brackets after ≈: the same amount, converted by molar mass. Where two headings read alike, the source gives them in different places.

System: S. aureus clinical isolates
Test: microbe, parasite or virus in culture
Assay type: cell-based
Conditions: Staphylococcus aureus, read-out: MIC

CC[C@H]1OC(=O)[C@H](C)[C@@H](O[C@H]2C[C@@](C)(OC)[C@@H](O)[C@H](C)O2)[C@H](C)[C@@H](O[C@@H]2O[C@H](C)C[C@H](N(C)C)[C@H]2O)[C@](C)(O)C[C@@H](C)CN(C)[C@H](C)[C@@H](O)[C@]1(C)O [Azithromycin]
MIC (ATCC 29213 / MSSA, S. aureus ATCC 29213, MSSA / VSSA, test date 2018-10-25 (three repeat lines)): 1 µg/mL (≈ 1.34 µM)
MIC (ATCC 29213 / MSSA, S. aureus ATCC 29213, MSSA / VSSA, test date 2018-11-07): 1 µg/mL (≈ 1.34 µM)
MIC (MRSA / NRS 3 / VISA, S. aureus IHMA 1308243, NRS3, MRSA / VISA): > 32 µg/mL
MIC (MRSA / NRS 4 / VISA, S. aureus IHMA 649380, NRS4, MRSA / VISA): > 32 µg/mL
MIC (MRSA / NRS 18 / VISA, S. aureus IHMA 649386, NRS18, MRSA / VISA): > 32 µg/mL
MIC (MRSA / NRS 19 / VISA, S. aureus IHMA 649387, NRS19, MRSA / VISA): > 32 µg/mL
MIC (MRSA / NRS 21 / VISA, S. aureus IHMA 649388, NRS21, MRSA / VISA): 0.5 µg/mL (≈ 0.668 µM)
MIC (MRSA / NRS 22 / USA600 / VISA, S. aureus IHMA 649389, NRS22, MRSA / VISA, USA600): > 32 µg/mL
MIC (MRSA / NRS 23 / VISA, S. aureus IHMA 649390, NRS23, MRSA / VISA): > 32 µg/mL
MIC (MRSA / NRS 24 / VISA, S. aureus IHMA 649391, NRS24, MRSA / VISA): > 32 µg/mL
MIC (MRSA / NRS 26, S. aureus IHMA 649392, NRS26, MRSA / VSSA): > 32 µg/mL
MIC (MRSA / NRS 27 / VISA, S. aureus IHMA 1308248, NRS27, MRSA / VISA): > 32 µg/mL
MIC (MRSA / NRS 29 / VISA, S. aureus IHMA 1308250, NRS29, MRSA / VISA): > 32 µg/mL
MIC (MRSA / NRS 37 / VISA, S. aureus IHMA 1308251, NRS37, MRSA / VISA): > 32 µg/mL
MIC (MRSA / NRS 54, S. aureus IHMA 1308253, NRS54, MRSA / VSSA* (*Expected VAN intermediate, confirmed VAN susceptible twice), test date 2018-11-07): > 32 µg/mL
MIC (MRSA / NRS 56 / VISA, S. aureus IHMA 1308254, NRS56, MRSA / VISA): > 32 µg/mL
MIC (MRSA / USA100 / VRSA, S. aureus IHMA 672230, VRS1, MRSA / VRSA, USA100): > 32 µg/mL
MIC (MRSA / USA100 / VRSA, S. aureus IHMA 672231, VRS2, MRSA / VRSA, USA100): > 32 µg/mL
MIC (MRSA / USA100 / VRSA, S. aureus IHMA 672234, VRS4, MRSA / VRSA, USA100): > 32 µg/mL
MIC (MRSA / USA100 / VRSA, S. aureus IHMA 672235, VRS5, MRSA / VRSA, USA100): > 32 µg/mL
MIC (MRSA / USA100 / VRSA, S. aureus IHMA 672237, VRS7, MRSA / VRSA, USA100): > 32 µg/mL
MIC (MRSA / USA100 / VRSA, S. aureus IHMA 672238, VRS8, MRSA / VRSA, USA100): > 32 µg/mL
MIC (MRSA / USA100 / VRSA, S. aureus IHMA 672239, VRS9, MRSA / VRSA, USA100): > 32 µg/mL
MIC (MRSA / USA100 / VRSA, S. aureus IHMA 1308256, VRS10, MRSA / VRSA, USA100): > 32 µg/mL
MIC (MRSA / USA100 / VRSA, S. aureus IHMA 1308258, VRS11b, MRSA / VRSA, USA100): > 32 µg/mL
MIC (MRSA / USA800 / VRSA, S. aureus IHMA 672233, VRS3b, MRSA / VRSA, USA800): > 32 µg/mL
MIC (MRSA, S. aureus IHMA 1569509, MRSA / VSSA): > 32 µg/mL
MIC (MRSA, S. aureus IHMA 1575268, MRSA / VSSA): > 32 µg/mL
MIC (MRSA, S. aureus IHMA 1575629, MRSA / VSSA): 1 µg/mL (≈ 1.34 µM)
MIC (MRSA, S. aureus IHMA 1577820, MRSA / VSSA): > 32 µg/mL
MIC (MRSA, S. aureus IHMA 1580300, MRSA / VSSA): 0.5 µg/mL (≈ 0.668 µM)
MIC (MRSA, S. aureus IHMA 1580940, MRSA / VSSA): > 32 µg/mL
MIC (MRSA, S. aureus IHMA 1582100, MRSA / VSSA): > 32 µg/mL
MIC (MRSA, S. aureus IHMA 1583795, MRSA / VSSA): > 32 µg/mL
MIC (MRSA, S. aureus IHMA 1584223, MRSA / VSSA): 32 µg/mL (≈ 42.7 µM)
MIC (MRSA, S. aureus IHMA 1585316, MRSA / VSSA): > 32 µg/mL
MIC (MRSA, S. aureus IHMA 1586780, MRSA / VSSA): 1 µg/mL (≈ 1.34 µM)
MIC (MRSA, S. aureus IHMA 1587322, MRSA / VSSA): > 32 µg/mL
MIC (MRSA, S. aureus IHMA 1588127, MRSA / VSSA): 0.5 µg/mL (≈ 0.668 µM)
MIC (MRSA, S. aureus IHMA 1591462, MRSA / VSSA): 1 µg/mL (≈ 1.34 µM)
MIC (MRSA, S. aureus IHMA 1592755, MRSA / VSSA): 0.5 µg/mL (≈ 0.668 µM)
MIC (MRSA, S. aureus IHMA 1592776, MRSA / VSSA): > 32 µg/mL
MIC (MRSA, S. aureus IHMA 1597106, MRSA / VSSA): > 32 µg/mL
MIC (MRSA, S. aureus IHMA 1602095, MRSA / VSSA): > 32 µg/mL
MIC (MRSA, S. aureus IHMA 1611170, MRSA / VSSA): > 32 µg/mL
MIC (MRSA, S. aureus IHMA 1611612, MRSA / VSSA): > 32 µg/mL
MIC (MRSA, S. aureus IHMA 1612228, MRSA / VSSA): 16 µg/mL (≈ 21.4 µM)
MIC (MRSA, S. aureus IHMA 1620441, MRSA / VSSA): > 32 µg/mL
MIC (MRSA, S. aureus IHMA 1621638, MRSA / VSSA): 1 µg/mL (≈ 1.34 µM)
MIC (MRSA, S. aureus IHMA 1622252, MRSA / VSSA): 1 µg/mL (≈ 1.34 µM)
MIC (MRSA, S. aureus IHMA 1622527, MRSA / VSSA): 1 µg/mL (≈ 1.34 µM)
MIC (MRSA, S. aureus IHMA 1666371, MRSA / VSSA): 0.25 µg/mL (≈ 0.334 µM)
MIC (MRSA, S. aureus IHMA 1695391, MRSA / VSSA): > 32 µg/mL
MIC (MRSA, S. aureus IHMA 1703428, MRSA / VSSA): 0.5 µg/mL (≈ 0.668 µM)
MIC (MRSA, S. aureus IHMA 1720350, MRSA / VSSA): 32 µg/mL (≈ 42.7 µM)
MIC (MRSA, S. aureus IHMA 1732989, MRSA / VSSA): > 32 µg/mL
MIC (MRSA, S. aureus IHMA 1742231, MRSA / VSSA): > 32 µg/mL
MIC (MRSA, S. aureus IHMA 1766357, MRSA / VSSA): 1 µg/mL (≈ 1.34 µM)
MIC (MSSA / NRS 12 / VISA, S. aureus IHMA 1308244, NRS12, MSSA / VISA): 0.5 µg/mL (≈ 0.668 µM)
MIC (MSSA / NRS 13 / VISA, S. aureus IHMA 1308245, NRS13, MSSA / VISA): 1 µg/mL (≈ 1.34 µM)
MIC (MSSA / NRS 14 / VISA, S. aureus IHMA 1308246, NRS14, MSSA / VISA): 0.5 µg/mL (≈ 0.668 µM)
MIC (MSSA / NRS 17 / VISA, S. aureus IHMA 1308247, NRS17, MSSA / VISA): 8 µg/mL (≈ 10.7 µM)
MIC (MSSA / NRS 28 / VISA, S. aureus IHMA 1308249, NRS28, MSSA / VISA): > 32 µg/mL
MIC (MSSA / NRS 52, S. aureus IHMA 1308252, NRS52, MSSA / VSSA* (*Expected VAN intermediate, confirmed VAN susceptible twice), test date 2018-11-07): 0.25 µg/mL (≈ 0.334 µM)
MIC (MSSA / USA100 / VRSA, S. aureus IHMA 672236, VRS6, MSSA / VRSA, USA100): > 32 µg/mL
MIC (MSSA, S. aureus IHMA 1563826, MSSA / VSSA): 1 µg/mL (≈ 1.34 µM)
MIC (MSSA, S. aureus IHMA 1565492, MSSA / VSSA): 1 µg/mL (≈ 1.34 µM)
MIC (MSSA, S. aureus IHMA 1569499, MSSA / VSSA): 0.5 µg/mL (≈ 0.668 µM)
MIC (MSSA, S. aureus IHMA 1569754, MSSA / VSSA): > 32 µg/mL
MIC (MSSA, S. aureus IHMA 1574202, MSSA / VSSA): 0.5 µg/mL (≈ 0.668 µM)
MIC (MSSA, S. aureus IHMA 1575652, MSSA / VSSA): 1 µg/mL (≈ 1.34 µM)
MIC (MSSA, S. aureus IHMA 1575779, MSSA / VSSA): > 32 µg/mL
MIC (MSSA, S. aureus IHMA 1576329, MSSA / VSSA): 1 µg/mL (≈ 1.34 µM)
MIC (MSSA, S. aureus IHMA 1577800, MSSA / VSSA): 1 µg/mL (≈ 1.34 µM)
MIC (MSSA, S. aureus IHMA 1578560, MSSA / VSSA): 1 µg/mL (≈ 1.34 µM)
MIC (MSSA, S. aureus IHMA 1580233, MSSA / VSSA): > 32 µg/mL
MIC (MSSA, S. aureus IHMA 1580925, MSSA / VSSA): 1 µg/mL (≈ 1.34 µM)
MIC (MSSA, S. aureus IHMA 1580955, MSSA / VSSA): 1 µg/mL (≈ 1.34 µM)
MIC (MSSA, S. aureus IHMA 1582586, MSSA / VSSA): 1 µg/mL (≈ 1.34 µM)
MIC (MSSA, S. aureus IHMA 1582691, MSSA / VSSA): > 32 µg/mL
MIC (MSSA, S. aureus IHMA 1584230, MSSA / VSSA): 1 µg/mL (≈ 1.34 µM)
MIC (MSSA, S. aureus IHMA 1587279, MSSA / VSSA): 1 µg/mL (≈ 1.34 µM)
MIC (MSSA, S. aureus IHMA 1591459, MSSA / VSSA): 0.5 µg/mL (≈ 0.668 µM)
MIC (MSSA, S. aureus IHMA 1592749, MSSA / VSSA): 1 µg/mL (≈ 1.34 µM)
MIC (MSSA, S. aureus IHMA 1592751, MSSA / VSSA): 1 µg/mL (≈ 1.34 µM)
MIC (MSSA, S. aureus IHMA 1594297, MSSA / VSSA): 32 µg/mL (≈ 42.7 µM)
MIC (MSSA, S. aureus IHMA 1597120, MSSA / VSSA): > 32 µg/mL
MIC (MSSA, S. aureus IHMA 1597125, MSSA / VSSA): > 32 µg/mL
MIC (MSSA, S. aureus IHMA 1599157, MSSA / VSSA): 1 µg/mL (≈ 1.34 µM)
MIC (MSSA, S. aureus IHMA 1599506, MSSA / VSSA): 1 µg/mL (≈ 1.34 µM)
MIC (MSSA, S. aureus IHMA 1602078, MSSA / VSSA): > 32 µg/mL
MIC (MSSA, S. aureus IHMA 1604586, MSSA / VSSA): 0.25 µg/mL (≈ 0.334 µM)
MIC (MSSA, S. aureus IHMA 1604609, MSSA / VSSA): 1 µg/mL (≈ 1.34 µM)
MIC (MSSA, S. aureus IHMA 1609919, MSSA / VSSA): > 32 µg/mL
MIC (MSSA, S. aureus IHMA 1622864, MSSA / VSSA): 1 µg/mL (≈ 1.34 µM)
MIC (MSSA, S. aureus IHMA 1626392, MSSA / VSSA): 0.5 µg/mL (≈ 0.668 µM)
MIC (MSSA, S. aureus IHMA 1713793, MSSA / VSSA): 1 µg/mL (≈ 1.34 µM)
